Non-standard residues stand in square brackets, D forms with d. No end group written: not given here.

This is an account of results in article PMC6627489, “Metal-Biosurfactant Complexes Characterization: Binding, Self-Assembly and Interaction with Bovine Serum Albumin” (International Journal of Molecular Sciences, 2019).

The target in data set [1] is bovine serum albumin (BSA) (Bos taurus, UniProt P02769). Nature of the data set: Fluorescence quenching of BSA (Stern-Volmer, binding constant, Van't Hoff). Particulars: for kq, biomolecular quenching rate constant / KSV, Stern-Volmer quenching constant: BSA 15 µM; for kq, biomolecular quenching rate constant: from KSV with τ0 about 5 ns; for KSV, Stern-Volmer quenching constant: excitation 280 nm; for ΔG of binding to BSA: ΔG=ΔH−TΔS. An excerpt: Fluorescence spectroscopy is a valuable tool for studying ligand-protein interactions. BSA contains two tryptophan residues, Trp134 and Trp213, which are located in sub-domain IB and sub-domain IIA, respectively. The maximum emission wavelength of BSA was found at 348 nm, and the intensity decreased regularly upon increasing the concentration of surfactin and metal-surfactin complexes. This interaction takes place adjacent to the Trp in BSA and changes the polarity around the fluorophore. This phenomenon is ascribed to the formation of surfactin/BSA and metal-surfactin/BSA complexes.
Figure 4 Fluorescence emission spectra of bovine serum albumin (BSA) with different concentrations of Cu^2+-surfactin (a), Zn^2+-surfactin (b), Mg^2+-surfactin (c), Ca^2+-surfactin (d) and surfactin (e). Conditions: BSA: 15 µM; metal-lipopeptide (a–g): 0, 10, 20, 50, 70, 100 and 120 µM; pH = 7.4; T =25 °C.
Fluorescence quenching can occur through dynamic and static mechanisms. Both dynamic and static quenching require molecular contact between the fluorophore and the quencher. The Stern–Volmer quenching (KSV) values decrease with an increase in temperature for static quenching, but the reverse effect is observed for dynamic quenching. Quenching parameters were calculated from the Stern–Volmer equation [34]:(1) F0/F=1+KSV[Q]=1+kqτ0[Q] where F0 and F are the fluorescence intensities in the absence and presence of surfactin or metal-surfactin complexes, respectively; KSV is the Stern–Volmer quenching constant; [Q] is the concentration of surfactin or metal-surfactin complexes; kq is the biomolecular quenching rate constant; and τ0 is the lifetime of the fluorophore. The fluorescence lifetime of BSA is about 5 ns. The KSV values obtained from the plot of [Q] versus F0/F (shown in Figure 5) were in the range from 6.696 × 10^3 to 7.787 × 10^3 M^−1 corresponding to the surfactin and metal-surfactin complexes.
For the static quenching interaction, the binding constant (Kb) and the number of binding sites (n) can be determined by the following equation:(2) log[(F0−F)/F]=logKb+nlog[Q] where F0 and F are the fluorescence intensities in the absence and presence of surfactin or metal-surfactin complexes, respectively, and [Q] is the concentration of surfactin or metal-surfactin complexes. Binding constants obtained from the plot of log [Q] versus log [(F0−F)/F] (Figure 6) corresponding to surfactin and metal-surfactin complexes ranged from 0.746 × 10^4 to 1.315 × 10^4 M^−1. […] Regarding the binding constants (Kb), surfactin has values higher than all the tested metal-surfactin complexes. […] The above results are similar to those reported for metal-amphisin/BSA [27].
Thermodynamic parameters for a binding interaction can be used as major evidence for the nature of intermolecular forces. There are four types of interaction forces, which could play a role in ligand binding to proteins: Van der Waals forces, hydrophobic forces, electrostatic interactions and hydrogen bonds. Thermodynamic parameters relying on temperatures were analyzed to characterize the acting force between surfactin and metal-surfactin complexes with BSA. To obtain such information, the thermodynamic parameters were calculated from the Van’t Hoff relation:(3) lnK=−ΔH^0/RT+ΔS^0/R (4) ΔG^0=ΔH^0−TΔS^0=−RTlnK where K is the binding constant, R is the gas constant and T is the experimental temperature. ΔH denotes the enthalpy change and ΔS denotes the entropy change of the binding process. The ΔH and ΔS values were calculated from the slope and intercept of the Van’t Hoff plot (Figure S2), respectively. The negative sign for ΔG means that the interaction process is spontaneous. […] This observation is supported by the docking results.
The fluorescence quenching spectra were obtained with a Varian Cary eclipse fluorescence spectrophotometer. […]

The nature of data set [2]: Surface tension measurements (du Noüy ring), CMC determination. In kind it is physicochemical. Conditions: du Noüy ring tensiometry, 10 mM Hepes buffer pH 7.4, 25 °C, metal ions 0.1 mM where present, triplicate. The method, then: For the pure surfactin in the Hepes buffer without divalent counterions, the critical micelle concentration (CMC) value was 0.045 mM. Regarding the effect of divalent cations, Ca^2+ decreased the CMC value of surfactin-C15 more than the other cations. Compared with the surfactin-C15 solution without metal ions, the CMC of Ca^2+-surfactin decreased from 0.045 mM to 0.017 mM. The addition of 0.1 mM of Cu^2+, Mg^2+ and Zn^2+ to surfactin-C15 reduced the CMCs to 0.033 mM, 0.036 mM and 0.038 mM, respectively. All the tested metal ions led to reductions of the surface tension of surfactin-C15 at the CMC (γcmc), being the highest reductions obtained with Cu^2+ and Ca^2+ (from 28.4 mN·m^−1 up to 24.5 and 25.1 mN·m^−1, respectively). The peptide ring of surfactin adopts a “horsesaddle” structure in solution, with the two charged residues forming a “claw”, which is a potential binding site for divalent cations.
Figure 3 Surface tension profiles of surfactin and metal-surfactin complexes in Hepes buffer (pH 7.4) at 25 °C. The values represent the mean of triplicates ± SD.
The surface tension (γ) measurements were performed at room temperature (25 °C) according to the du Noüy’s ring method using a KRÜSS K20 Tensiometer (KRÜSS GmbH, Hamburg, Germany). […] The surface tension data were analyzed using the Origin software provided with the equipment to obtain the CMC values.

Data set [3] can be described thus: Micelle size by dynamic light scattering (DLS). In kind it is physicochemical. Particulars: 10 mM Hepes pH 7.4, 25 °C. An excerpt: For example, it is known that the addition of metal ions decreases the CMC of surfactin. This is probably related with two important competing forces during the micellization process. Electrostatic interactions, which are responsible for the repulsion of hydrophilic groups of the lipopeptide inhibit the formation of micelles. On the other hand, hydrophobic interactions are responsible for initiation of micellization through exclusion of fatty acid chains from the aqueous environment. The presence of divalent cations additionally supports the self-assembly process. […] In the case of the Cu^2+-surfactin system, Vmic^PM6 is twice lower than in the case of the free lipopeptide. Such big differences influence the aggregation number. Generally, Nagg decreases after binding of cations. The experimental micelle volumes and hydrodynamic radii with their theoretically calculated counterparts and aggregation numbers are shown in Table 1. The experimental (RH^DLS) and theoretically calculated (RH^PM6) hydrodynamic radii of surfactin-C15 were 2.46 nm and 2.40 nm, respectively. Addition of Cu^2+, Zn^2+, Mg^2+ and Ca^2+ reduces the size of the microstructures. In this study, we observed the largest modifications of surfactin-C15 conformation due to the binding of Cu^2+; in that case RH^DLS and RH^PM6 were 1.82 nm and 1.80 nm, respectively. […]

Where [4] appears, read: 25 °C, pH 7.4, from plot of log[(F0−F)/F] versus log[Q].
Where [5] appears, read: Van't Hoff plot over 25, 30, 37 °C.

Chain of bovine serum albumin (BSA) (P02769 25-607): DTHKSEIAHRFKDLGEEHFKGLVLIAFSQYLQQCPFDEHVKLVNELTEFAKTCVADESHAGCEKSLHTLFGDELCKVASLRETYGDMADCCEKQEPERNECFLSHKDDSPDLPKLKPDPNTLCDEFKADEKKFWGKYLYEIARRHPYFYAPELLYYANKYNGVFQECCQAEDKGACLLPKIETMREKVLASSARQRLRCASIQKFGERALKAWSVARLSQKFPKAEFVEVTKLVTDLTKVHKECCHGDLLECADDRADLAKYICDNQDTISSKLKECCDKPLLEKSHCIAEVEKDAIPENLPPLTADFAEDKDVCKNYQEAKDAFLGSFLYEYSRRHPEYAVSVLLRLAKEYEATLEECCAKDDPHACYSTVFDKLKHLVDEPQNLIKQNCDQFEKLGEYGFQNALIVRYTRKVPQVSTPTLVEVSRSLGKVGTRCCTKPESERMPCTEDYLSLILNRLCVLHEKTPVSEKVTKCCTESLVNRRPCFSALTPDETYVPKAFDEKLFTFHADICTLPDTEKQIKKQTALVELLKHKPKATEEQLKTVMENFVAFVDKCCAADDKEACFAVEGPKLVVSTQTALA

With “EL[dL]VD[dL]L (also: lariat or depsi (positions not given here)) [Surfactin, surfactin-C15, cyclic lipopeptide biosurfactant from Bacillus subtilis #309; heptapeptide closed to a lactone ring by a C15 β-hydroxyl fatty acid]”, the “Kb, binding constant with BSA” value in data set [1] (setting [4]) was determined as 13150 M⁻¹. In addition, the “n, number of binding sites on BSA” value in data set [1] (setting [4]) is given as 1.07. Moreover, the “kq, biomolecular quenching rate constant” value in data set [1] (T 25 °C, pH 7.4) is 1.339e+12 M⁻¹ s⁻¹; in data set [1] (T 30 °C, pH 7.4), 9.852e+11 M⁻¹ s⁻¹; in data set [1] (T 37 °C, pH 7.4), 6.294e+11 M⁻¹ s⁻¹. Besides, the “KSV, Stern-Volmer quenching constant” value in data set [1] (T 25 °C, pH 7.4, quencher 0-120 µM) amounted to 6696 M⁻¹; in data set [1] (T 30 °C, pH 7.4), 4926 M⁻¹; in data set [1] (T 37 °C, pH 7.4), 3147 M⁻¹. For the same substance, the “ΔG of binding to BSA” value was -5.22 kcal/mol in data set [1] (T 25 °C), -5.112 kcal/mol in data set [1] (T 30 °C) and -4.964 kcal/mol in data set [1] (T 37 °C). Moreover, the “ΔH of binding to BSA” value in data set [1] (setting [5]) is -11.57 kcal/mol. Besides, in data set [1] (setting [5]), the “ΔS of binding to BSA” value was −89.20 J·mol^−1·K^−1. For the same substance, the “critical micelle concentration (CMC)” value in data set [2] (surfactin-C15 0.003-0.12 mM) was found to be 0.045 mM. The “surface tension at the CMC (γcmc)” value in data set [2] is reported as 28.4 mN·m^−1. In data set [3] (DLS, 173° backscatter, mean of 9 replicates ± SD), the “RH^(DLS), hydrodynamic radius of micelles” value is listed as 2.46 ± 0.03 nm. Besides, the “Vmic^(DLS), micelle volume” value in data set [3] (Vmic(DLS)=4/3·π·(RH(DLS))^3, from DLS radius) was found to be 62.36 nm^3.
